Reference: patent US12065427B2, “Heterocyclic compounds capable of activating STING” (BOEHRINGER INGELHEIM INTERNATIONAL GMBH, priority 2021, dated 2024)

Columns and labels:
[1] = test system: Human STING (hSTING, residues 155-341); assay: Interaction with hSTING as determined by Differential Scanning Fluorimetry (DSF); format: binding; conditions: 100 μM test compounds, 5 μM target protein
Protocol: Interaction with hSTING as Determined by Differential Scanning Fluorimetry (DSF)
In DSF, the temperature at which a protein unfolds, also called the melting temperature Tm, is measured by changes in fluorescence of a dye that binds to the hydrophobic parts of the protein. Tm shifts upon binding of a small molecule are correlated with the binding affinity of this small molecule. As target protein, Human STING (hSTING, residues 155-341, MW: 21578.4 Da; protein stock solution: c=1302 μM stock solution in 20 mM Tris, 100 mM NaCl, 2 mM TCEP pH 8.8) was used, as assay buffer 20 mM Tris, 150 mM NaCI pH7.5 was added where and as necessary.
Final concentrations of components in assay: 100 μM test compounds, 5 μM target protein, “5×” SYPR Orange (from stock solution SYPRO orange solution in DMSO (invitrogen cat.-no. S6650-500 ul), concentration “5000×”)
1) Dilutions of compound stock solutions (10 mM in DMSO) were prepared in assay buffer (20 mM Tris, 150 mM NaCl; pH7.5)
2) 5 μl fluorescent dye stock solution (5000×SYPRO Orange in DMSO) was mixed with 19 μl target protein (1302 μM) and 976 μl assay buffer.
3) 2 μl of this protein-dye-mixture (25×SYPRO Orange and 25 μM Protein) was added to 8 μl diluted compound solution as prepared in step 1. Final volume was 10 μl.
4) With every 20 compounds, two negative controls were measured.
5) The plates were prepared for duplicate measurement and centrifuged for 2 min at 1000 g.
6) For the measurement, a CFX384 Real-Time System (Bio-Rad) was used. The run consisted of 140 cycles with 0.5° C./cycle (temperature ramp 15 s/cycle, 25° C. to 95° C.).
Data analysis: The melting curves were processed in Bio-Rad CFX Manager. Peak type was set to “negative”. Two replicates of TM (melting temperature) measurements were averaged and the standard deviation was calculated.

STING HAQ-variant = molecular target: T1, STING HAQ-variant (Homo sapiens, UniProt Q86WV6, G230A/H232R/R293Q/R71H); assay: IRF-inducible SEAP reporter assay in THP1-Blue ISG cells, STING HAQ-variant; format: cell-based; conditions: STING HAQ-variant (parental or re-introduced), 24 hours incubation
T1 construct: parental THP1-Blue™ ISG cell lines (which express endogenously HAQ); host or cells: THP1-Blue ISG (parental, endogenous HAQ) or STING-KO clone re-transduced with HAQ (MSCV-ires-GFP-Blasti)
Excerpt: (§1) In Vitro Cytokine Induction Measured Via Activation of an Interferon Regulatory Factor Inducible Reporter Gene
(§2) Activation of the STING protein expressed in cell lines results in an increase of interferon production. By the stable integration of an interferon regulatory factor (IRF)-inducible SEAP gene (secreted embryonic alkaline phosphatase) reporter construct the functional interferon signaling pathway can be monitored. Using Invivogen's THP1-Blue™ ISG colorimetric enzyme assay and a suitable optical density (OD) reader the activity of SEAP can be detected and quantified. This technique could be used to characterize pharmacological modification of the STING pathway.
(§3) Several single nucleotide polymorphisms have been identified in the human STING gene. To determine the activity of the above described compounds, THP1-Blue™ ISG reporter cell lines expressing the different human STING variants have been generated. To do so, the endogenous human STING was first deleted using the CRISPR/CAS9 system: THP1-Blue ISG cells were electroporated with ALL-IN-ONE CRISPR plasmids targeting the STING gene (purchased from Sigma encoding the gRNA and GFP as a reporter gene for successful transduction). GFP positive cells then were sorted 24 h post transfection and expanded. Cells were then dispersed in semisolid methocel medium to allow single cell clone isolations. Clones were then screened for cGAMP responsiveness using the Quanti-Blue™ reporter assay. Non-responsive clones were subsequently analysed for STING loss by western blotting and sequencing of the STING locus.
(§4) For the overexpression of the human STING variants, a confirmed THP1-Blue™ ISG hSTING KO clone was transduced with individual retroviral plasmids (MSCV-ires-GFP-Blasti) encoding the allelic variants of hSTING (WT (H232R), HAQ, R232H, AQ and R293Q). Transduced cells were sorted for different levels of GFP fluorescence and STING allele expression was analysed by western blot.
(§5) Measurements of SEAP activity were performed in THP1-Blue™ ISG cells stably expressing the different human STING isoforms and the IRF-inducible SEAP reporter construct. Cells were cultivated in RPMI1640 medium with 10% fetal calf serum, 50 μg/ml Penicillin-Streptomycin, 100 μg/ml Zeocin, and 100 μg/ml Normocin in a 37°, 95% humidity and 5% CO2 incubator.
(§6) In preparation for the assay, the cells were distributed into the assay plates with a density of 10000 cells/15 μL per well. Compounds were prepared by an 8 point serial dilution in 50% aqueous DMSO and a final dilution step into medium to ensure a final DMSO concentration of 0.5% in the assay. 5 μL of diluted compounds were added to the plates, followed by a 24 hours incubation at 37° C.
(§7) At the day of the assay, 75 μl per well of Quanti-Blue™ reagent was added to all wells of the plate and the plate was incubated another 30 minutes at 37° C. The OD at 620 nm was measured on the EnVision reader (PerkinElmer).
(§8) EC50 values and Hill slopes were derived from 8-point four parametric non-linear curve fittings with the Megalab software (Boehringer Ingelheim) using the OD at 620 nm.
(§9) Data of EC50 values can be found in tables 2a-2e.
Data of EC50 values on STING HAQ-variant can be found in table 2a. Shown data below were either derived from the parental THP1-Blue™ ISG cell lines (which express endogenously HAQ) or from genetically engineered THP1-Blue™ ISG cell lines in which first STING has been knocked-out and the HAQ specific STING isoform has been re-introduced as described above.

STING H232R-variant = molecular target: T2, STING H232R-variant (Homo sapiens, UniProt Q86WV6, H232R); assay: IRF-inducible SEAP reporter assay in THP1-Blue ISG cells, STING H232R-variant; format: cell-based; conditions: STING H232R-variant (WT), 24 hours incubation
T2 construct: expressed in transfected cells; host or cells: THP1-Blue ISG hSTING KO clone, retroviral MSCV-ires-GFP-Blasti
Excerpt: as §1, §2, §3, §4, §5, §6, §7, §8, §9
Data of EC50 values on STING H232R-variant can be found in table 2b: […]

STING R232H-variant = molecular target: T3, STING R232H-variant (Homo sapiens, UniProt Q86WV6); assay: IRF-inducible SEAP reporter assay in THP1-Blue ISG cells, STING R232H-variant; format: cell-based; conditions: 24 hours incubation
T3 construct: expressed in transfected cells; host or cells: THP1-Blue ISG hSTING KO clone, retroviral MSCV-ires-GFP-Blasti
Excerpt: as §1, §2, §3, §4, §5, §6, §7, §8, §9
Data of EC50 values on STING R232H-variant can be found in table 2c: […]

STING R293Q-variant = molecular target: T4, STING R293Q-variant (Homo sapiens, UniProt Q86WV6, H232R/R293Q); assay: IRF-inducible SEAP reporter assay in THP1-Blue ISG cells, STING R293Q-variant; format: cell-based; conditions: 24 hours incubation
T4 construct: expressed in transfected cells; host or cells: THP1-Blue ISG hSTING KO clone, retroviral MSCV-ires-GFP-Blasti
Excerpt: as §1, §2, §3, §4, §5, §6, §7, §8, §9
Data of EC50 values on STING R293Q-variant can be found in table 2d: […]

STING AQ-variant = molecular target: T5, STING AQ-variant (Homo sapiens, UniProt Q86WV6, G230A/H232R/R293Q); assay: IRF-inducible SEAP reporter assay in THP1-Blue ISG cells, STING AQ-variant; format: cell-based; conditions: 24 hours incubation
T5 construct: expressed in transfected cells; host or cells: THP1-Blue ISG hSTING KO clone, retroviral MSCV-ires-GFP-Blasti
Excerpt: as §1, §2, §3, §4, §5, §6, §7, §8, §9
Data of EC50 values on STING AQ-variant can be found in table 2e: […]

in vitro = conditions: human, Caco-2, pH 7.4
Protocol: Cellular Permeability Measurements
Caco-2 cells were obtained from Leibniz Institute DSMZ-German Collection of Microorganisms and Cell Cultures (Braunschweig, Germany) and cultured in DMEM (Dulbecco's modified Eagle medium) containing (in final concentrations) 10% FCS (fetal calf serum), 1% NEAA (non-essential amino acids), 2 mM Glutamin, 100 U/mL Penicillin and 100 μg/mL Streptomycin. Caco-2 cells were seeded either onto 24-well Transwell inserts (Corning, #3379) for bidirectional permeability assays at a density of 160,000 cells/cm^2 and cultured for 3 weeks, with media change on every second day.
For bidirectional permeability assays 10 mM DMSO stock solutions were diluted in transport buffer (final concentrations: 128.13 mM NaCl, 5.36 mM KCl, 1 mM MgSO4, 1.8 mM CaCl2, 4.17 mM NaHCO3, 1.19 mM Na2HPO4, 0.41 mM NaH2PO4, 15 mM 2-[4-(2-hydroxyethyl)piperazin-1-yl]ethanesulfonic acid (HEPES), 20 mM glucose, pH 7.4) containing 0.25% bovine serum albumin to a final concentration of 10 μM of the test compounds and added to the apical or basal compartment. Cells were incubated with the compounds for up to 2 h. Samples from the opposite compartment were taken at different timepoints.
Compound concentrations in the compartments were quantified using a RapidFire-based high-throughput HPLC/MS/MS system (high performance liquid chromatography/mass spectrometry; Bio-Cius) that was customized to a fully automated and flexible platform, termed RIAS. In this modified setup, the sample was aspirated by a vacuum pump into a 10 μL sample loop for 250 ms and flushed onto a C4 cartridge (3.8 μL bed volume; Bio-Cius) with the aqueous mobile phase (99.9% water, 0.09% formic acid, and 0.01% TFA; flow rate 1.5 mL/min). Prior to bioanalysis samples were spiked with internal standard solution and diluted with acetonitrile (ACN) for protein precipitation. Measurement was operated in multiplereaction monitoring (MRM) mode. Quantification was performed using external calibration. A solid-phase extraction step retained the analyte for 3000 ms while interfering matrix (e.g., buffer components) was removed. With a simple step gradient, the analyte was back-eluted from the cartridge for 3,000 ms with the organic mobile phase (99.9% acetonitrile/methanol [1:1, v:v], 0.09% formic acid, and 0.01% TFA) and flushed into the mass spectrometer at a flow rate of 1.25 mL/min. Afterwards, the cartridge was re-equilibrated with the aqueous mobile phase for 500 ms (flow rate 1.5 mL/min).
Apparent permeability coefficients in the apical to basal direction (Papp,AB) and in the basal to apical direction (Papp,BA) and efflux ratios were calculated as follows: Papp,AB=QAB/(C0·s·t) Papp,BA=QBA/(C0·s·t) Efflux ratio=Papp,BA/Papp,AB
where Q is the amount of compound recovered in the receiver compartment after the incubation time t, C0 the initial compound concentration given to the donor compartment, and s the surface area of the Transwell inserts. […] In addition, transepithelial electrical resistance (TEER) values are measured for each plate before the permeability assay, and total recovery in donor and receiver compartments was determined for each compound.

T3 sequence (Q86WV6 whole entry, stated change not applied): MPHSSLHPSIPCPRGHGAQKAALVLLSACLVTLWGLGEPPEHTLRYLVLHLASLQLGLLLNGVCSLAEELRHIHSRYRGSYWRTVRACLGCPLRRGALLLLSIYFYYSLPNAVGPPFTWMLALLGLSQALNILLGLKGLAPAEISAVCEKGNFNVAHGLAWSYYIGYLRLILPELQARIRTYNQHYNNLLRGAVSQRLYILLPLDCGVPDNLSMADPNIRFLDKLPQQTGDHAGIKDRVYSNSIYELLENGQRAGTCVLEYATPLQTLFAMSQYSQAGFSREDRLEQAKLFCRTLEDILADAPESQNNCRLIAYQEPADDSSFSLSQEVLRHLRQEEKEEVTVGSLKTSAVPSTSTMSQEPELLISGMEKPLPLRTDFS
T1 sequence (Q86WV6 whole entry R71H/G230A/H232R/R293Q): as the sequence (Q86WV6 whole entry, stated change not applied) above, with R71H, G230A, H232R, R293Q counted along it
T5 sequence (Q86WV6 whole entry G230A/H232R/R293Q): as the sequence (Q86WV6 whole entry, stated change not applied) above, with G230A, H232R, R293Q counted along it
T4 sequence (Q86WV6 whole entry H232R/R293Q): as the sequence (Q86WV6 whole entry, stated change not applied) above, with H232R, R293Q counted along it
T2 sequence (Q86WV6 whole entry H232R): as the sequence (Q86WV6 whole entry, stated change not applied) above, with H232R counted along it

EC50 (STING HAQ-variant) | EC50 (STING H232R-variant) | EC50 (STING R232H-variant) | EC50 (STING R293Q-variant) | EC50 (STING AQ-variant) | Papp A→B at 10 μM (in vitro) | efflux ratio at 10 μM (in vitro) | Structure (SMILES) | thermal shift (ΔTm) [1]
600 nM | 90 nM | 50 nM | 400 nM | 200 nM | 20 ×10⁻⁶ cm/s | 0.6 | Cc1cccc2c(-c3cccc4nn(C)cc34)nn(-c3ccc(N4CCC5(CCC(=O)N5)CC4)nc3)c12 [Example #2, 8-(5-{2′,7-dimethyl-1H,2′H-[3,4′-biindazol]-1-yl}pyri-din-2-yl)-1,8-dia-zaspiro[4.5]decan-2-one] | 22 K
800 nM | 200 nM | 200 nM | 700 nM | 600 nM | 28 ×10⁻⁶ cm/s | 0.6 | Cc1cccc2c(-c3cccc4nn(C)cc34)nn(-c3ccc(N4CCN(C(N)=O)CC4)nc3)c12 [Example #7, 4-(5-{2′,7-dimethyl-1H,2′H-[3,4′-biindazol]-1-yl}pyri-din-2-yl)piperazine-1-car-boxamide] | 22 K
700 nM | 100 nM | 200 nM | 700 nM | 700 nM | 10 ×10⁻⁶ cm/s | 1.6 | Cc1cccc2c(-c3cccc4nn(C)cc34)nn(-c3ccc(N4CCC(S(N)(=O)=O)CC4)nc3)c12 [Example #22, 1-(5-{2′,7-dimethyl-1H,2′H-[3,4'′biindazol]-1-yl}pyri-din-2-yl)piperidine-4-sul-fonamide] | 23 K
3000 nM | 2900 nM | 2900 nM | 2200 nM | 3000 nM | 10 ×10⁻⁶ cm/s | 1.1 | Cc1cc2c(-c3nn(-c4ccc(N5CCC(C(=O)O)CC5)nc4)c4c(C)cccc34)cccc2cn1 [Example #61, 1-{5-[7-methyl-3-(3-methylisoquinolin-5-yl)-1H-indazol-1-yl]pyridin-2-yl}piperidine-4-carboxylic acid] | 16 K
1000 nM | 100 nM | 200 nM | 600 nM | 700 nM | 23 ×10⁻⁶ cm/s | 0.3 | Cc1cccc2c(-c3cccc4nn(C)cc34)nn(-c3ccc(N4CCC5(CC4)C(=O)N(C)C(=O)N5C)nc3)c12 [compound 9, 8-(5-{2′,7-dimethyl-1H,2′H-[3,4′-biindazol]-1-yl}pyri-din-2-yl)-1,3-dimethyl-1,3,8-triazaspiro[4.5] decane-2,4-dione] | 23 K
2100 nM | 400 nM | 500 nM | 2100 nM | 2200 nM | 26 ×10⁻⁶ cm/s |  | Cc1cccc2c(-c3cccc4nn(C)cc34)nn(-c3ccc(N4CCC5(CC4)CNC5=O)nc3)c12 [compound 10, 7-(5-{2′,7-dimethyl-1H,2′H-[3,4′-biindazol]-1-yl}pyri-din-2-yl)-2,7-dia-zaspiro[3.5]nonan-1-one] | 20 K
1000 nM | 200 nM | 200 nM | 700 nM | 700 nM | 26 ×10⁻⁶ cm/s | 0.5 | CC(=O)N1CCN(c2ccc(-n3nc(-c4cccc5nn(C)cc45)c4cccc(C)c43)cn2)CC1 [compound 15, 1-[4-(5-{2′,7-dimethyl-1H,2′H-[3,4′-biindazol]-1-yl}pyridin-2-yl)piperazin-1-yl]ethan-1-one] | 21 K
6800 nM | 2100 nM | 2000 nM | 6100 nM | 5700 nM | 26 ×10⁻⁶ cm/s | 0.3 | Cc1cccc2c(-c3cccc4nn(C)cc34)nn(-c3ccc(N4CCOCC4)nc3)c12 [compound 17, 2′,7-dimethyl-1-[6-(mor-pholin-4-yl)pyridin-3-yl]-1H,2′H-3,4′-biindazole] | 16 K
700 nM | 200 nM | 200 nM | 700 nM | 600 nM | 36 ×10⁻⁶ cm/s | 0.3 | Cc1cccc2c(-c3cccc4nn(C)cc34)nn(-c3ccc(N4CCC(S(C)(=O)=O)CC4)nc3)c12 [compound 18, 1-[6-(4-methanesulfonylpi-peridin-1-yl)pyridin-3-yl]-2′,7-dimethyl-1H,2′H-3,4′-biindazole] | 22 K
1700 nM | 700 nM | 700 nM | 1600 nM | 1900 nM | 50 ×10⁻⁶ cm/s | 0.2 | Cc1cccc2c(-c3cccc4nn(C)cc34)nn(-c3ccc(N4CC5(CCN(C=O)C5)C4)nc3)c12 [compound 53, 2-(5-{2′,7-dimethyl-1H,2′H-[3,4′-biinda-zol]-1-yl}pyridin-2-yl)-2,6-dia-zaspiro[3.4]octane-6-carbaldehyde] | 20 K
2300 nM | 800 nM | 700 nM | 1700 nM | 1200 nM | 21 ×10⁻⁶ cm/s | 1 | CC(=O)NC1C2CN(c3ccc(-n4nc(-c5cccc6nn(C)cc56)c5cccc(C)c54)cn3)CC21 (stereo not drawn) [compound 55, N-[3-(5-{2′,7-dimethyl-1H,2′H-[3,4′-biindazol]-1-yl}pyridin-2-yl)-3-azabicyclo[3.1.0]hexan-6-yl]acetamide] | 20 K
